Test systems include 786-0; A549; ACHN; CAKI-1; COLO 205; DU-145; EKVX; HL-60; K562; M14; MOLT-4; Malme-3M; NCI-H226; NCI-H23; OVCAR-3; RXF 393; SN12C; UACC-257; MDA-N; SR.
Experiment in all cases: DTP human tumour cell line panel, 48 h

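Five compound concentrations were applied to cells in 96-well plates for 48 hours; endpoints were derived by simple linear interpolation of the resulting dose-response curve. Abbreviation: GI50, concentration required for 50% inhibition of growth.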 Active and inactive are the calls of the source. Cut-off read from the data, not from the text of the source: active = GI50 up to about 1.1 µM and inactive = higher.

Take `COc1cc2c(/C=C3/C(=O)Nc4ccc(O)cc43)c(Cl)[nH]c2cc1C`: the GI50 (commonly the concentration at which growth is held to half of that of the control) is 0.173 µM (active) with 786-0; 0.397 µM (active) with A549; 0.108 µM (active) in the assay on ACHN; 0.0893 µM (active) with CAKI-1; 0.192 µM (active) with COLO 205; 0.245 µM (active) in the assay on DU-145. In addition, the GI50 in the assay with EKVX is 0.679 µM (active); in the assay on HL-60, 0.0343 µM (active); with K562, 0.0382 µM (active); in the assay on M14, 0.0897 µM (active); in the assay on MOLT-4, 0.039 µM (active); with Malme-3M, 0.0398 µM (active). Moreover, the concentration for 50% growth inhibition (GI50) in the assay with NCI-H226 is 0.258 µM (active); in the assay with NCI-H23, 0.23 µM (active); in the assay on OVCAR-3, 0.026 µM (active); with RXF 393, 0.176 µM (active); in the assay with SN12C it was 0.197 µM (active); with UACC-257, 0.615 µM (active).
In the case of `O=C(c1ccsc1)c1nccc2c1cnc1ccccc12`, the GI50 in the assay with 786-0 was 97.7 µM (inactive); in the assay on A549, > 100 µM (inactive); with ACHN, > 100 µM (inactive); in the assay with CAKI-1 it was > 100 µM (inactive); in the assay on COLO 205, > 100 µM (inactive); in the assay with DU-145 it was > 100 µM (inactive). Also, the GI50 was 15.6 µM (inactive) with EKVX; 2.47 µM (inactive) with HL-60; > 100 µM (inactive) with M14; > 100 µM (inactive) in the assay on MDA-N; 4.44 µM (inactive) in the assay on MOLT-4; 65.5 µM (inactive) in the assay with Malme-3M. Also, the GI50 with NCI-H226 is 34.8 µM (inactive); in the assay on NCI-H23, 45.3 µM (inactive); in the assay on OVCAR-3 it was > 100 µM (inactive); with RXF 393, 84.9 µM (inactive); with SN12C, > 100 µM (inactive); with UACC-257 it was 45.2 µM (inactive).
With `CCOC(=O)C(CO)c1nc2c([nH]c1=O)c(=O)n(C)c(=O)n2C` (stereo not given), the GI50 in the assay on 786-0, with A549, in the assay on ACHN, with CAKI-1, in the assay on COLO 205 and with DU-145 was > 100 µM (inactive) each time. Also, the GI50 in the assay with EKVX, in the assay with HL-60, in the assay on K562, with M14, in the assay on Malme-3M and in the assay on NCI-H226 was > 100 µM (inactive) each time. Moreover, the GI50 in the assay with NCI-H23, in the assay with OVCAR-3, with SN12C, with SR and in the assay with UACC-257 was > 100 µM (inactive) in each case.
For `COC(=O)Nc1nc2cc(C(=O)c3ccc[nH]3)ccc2[nH]1`, the GI50 in the assay on 786-0 is 1.69 µM (inactive); in the assay with CAKI-1, 0.332 µM (active); in the assay on COLO 205, 0.342 µM (active); in the assay with DU-145, 1.82 µM (inactive); in the assay with HL-60, 0.0689 µM (active); in the assay with K562, 0.387 µM (active). Besides, the GI50 was 0.571 µM (active) with M14; 0.134 µM (active) in the assay with MDA-N; 0.575 µM (active) in the assay with MOLT-4; 0.418 µM (active) with Malme-3M; 1.16 µM (inactive) with NCI-H226; 6.87 µM (inactive) in the assay with NCI-H23. Further, the GI50 was 0.0895 µM (active) in the assay with RXF 393 and 1.15 µM (inactive) in the assay on SN12C.
`O=C(c1cc2ccccc2cc1O)N1CCCCC1`: the GI50 is 59.4 µM (inactive) in the assay with 786-0; 38.2 µM (inactive) with ACHN; 50.7 µM (inactive) with CAKI-1; 32.7 µM (inactive) in the assay with COLO 205; 64.1 µM (inactive) in the assay with DU-145; 20.3 µM (inactive) in the assay with EKVX. In addition, the GI50 is 20.4 µM (inactive) with HL-60; 21.6 µM (inactive) with K562; 18.1 µM (inactive) with M14; 15.3 µM (inactive) with MOLT-4; 17.8 µM (inactive) in the assay on NCI-H226; 51.1 µM (inactive) in the assay with RXF 393. In addition, the GI50 with SR is 16.7 µM (inactive); with UACC-257, 53 µM (inactive).
On to `Clc1ccc(Nc2nn3c(CCCCCCCCc4nnc5sc(Nc6ccc(Cl)cc6)nn45)nnc3s2)cc1`, for which the GI50 in the assay on 786-0 is 51.6 µM (inactive); in the assay with A549, > 100 µM (inactive); in the assay on ACHN, > 100 µM (inactive); with CAKI-1, > 100 µM (inactive); in the assay on COLO 205 it was > 100 µM (inactive); in the assay on DU-145, > 100 µM (inactive). Also, the GI50 in the assay with EKVX is > 100 µM (inactive); in the assay on K562 it was 50.5 µM (inactive); in the assay on M14, > 100 µM (inactive); in the assay on MDA-N it was > 100 µM (inactive); in the assay on MOLT-4, 90.6 µM (inactive); in the assay on Malme-3M, > 100 µM (inactive). In addition, the GI50 with NCI-H226, in the assay on NCI-H23, in the assay on OVCAR-3, in the assay with RXF 393, in the assay on SN12C and in the assay with UACC-257 was > 100 µM (inactive) each time.
Consider `COc1cc(C2c3cc4c(cc3OC(N3CCOCC3)C2C)OCO4)cc(OC)c1O` (stereo not given), for which the GI50 with 786-0 is 10.1 µM (inactive); in the assay with A549, 8.91 µM (inactive); with ACHN, 12.2 µM (inactive); in the assay on CAKI-1, 11.5 µM (inactive); with COLO 205, 15.6 µM (inactive); with DU-145, 29.7 µM (inactive). Moreover, the GI50 is 36.2 µM (inactive) in the assay on EKVX; 3.52 µM (inactive) with HL-60; 3.38 µM (inactive) in the assay on K562; 7.29 µM (inactive) in the assay on M14; 3.18 µM (inactive) in the assay with MOLT-4; 3.29 µM (inactive) with Malme-3M. Besides, the GI50 in the assay on NCI-H226 was 22.6 µM (inactive); in the assay with NCI-H23 it was 24.8 µM (inactive); in the assay with OVCAR-3, 5.42 µM (inactive); in the assay with RXF 393, 14.7 µM (inactive); in the assay with SN12C it was 13.7 µM (inactive); in the assay on SR, 3.82 µM (inactive). The GI50 in the assay with UACC-257 was 17.8 µM (inactive).
In the case of `Cc1ccc(C)c(NC(=O)/C(=N\N)C(c2cnc3ccc([N+](=O)[O-])cc3n2)[N+](=O)[O-])c1` (stereo not given), the GI50 with 786-0 is > 100 µM (inactive); in the assay on A549, 92.7 µM (inactive); in the assay with ACHN it was 14.5 µM (inactive); in the assay on CAKI-1, 39.4 µM (inactive); with EKVX, 43.3 µM (inactive); in the assay on HL-60 it was 52 µM (inactive). Further, the GI50 was > 100 µM (inactive) with K562; > 100 µM (inactive) with M14; > 100 µM (inactive) in the assay on MDA-N; 54.5 µM (inactive) in the assay with MOLT-4; 66.8 µM (inactive) with Malme-3M; > 100 µM (inactive) with NCI-H226. Moreover, the GI50 in the assay with NCI-H23 was 70.8 µM (inactive); in the assay on OVCAR-3 it was 61.1 µM (inactive); in the assay with RXF 393 it was > 100 µM (inactive); in the assay on SN12C, > 100 µM (inactive); in the assay with SR it was 74.1 µM (inactive); with UACC-257, > 100 µM (inactive).
Take `COc1ccc(CCNC(=O)Cc2ccccc2CCO)cc1OC`: the GI50 in the assay on 786-0, in the assay with A549, in the assay on ACHN, in the assay on CAKI-1, in the assay on COLO 205 and in the assay on DU-145 was > 100 µM (inactive) throughout. Further, the GI50 with EKVX, in the assay on HL-60, in the assay with K562, in the assay with M14, in the assay on MOLT-4 and in the assay on NCI-H226 was > 100 µM (inactive) each time. For the same compound, the GI50 in the assay with NCI-H23, in the assay with OVCAR-3, in the assay with RXF 393, in the assay with SN12C, in the assay with SR and with UACC-257 was > 100 µM (inactive) in each case.
In the case of `O=C1CCCNn2c(nc3ncccc3c2=O)N1`, the GI50 in the assay with 786-0, in the assay on A549, in the assay with ACHN, in the assay on CAKI-1, in the assay on COLO 205 and in the assay with EKVX was > 100 µM (inactive) in each case. Also, the GI50 with HL-60, with K562, with M14, with MDA-N, with MOLT-4 and in the assay on Malme-3M was > 100 µM (inactive) each time. For the same compound, the GI50 with NCI-H226, in the assay on NCI-H23, with OVCAR-3, in the assay with RXF 393 and in the assay with UACC-257 was > 100 µM (inactive) in each case.
With `O=C(O)c1cccc(F)c1C(=O)c1ccc2ccccc2c1`, the GI50 in the assay with 786-0 is > 100 µM (inactive); in the assay with A549, > 100 µM (inactive); in the assay on ACHN, > 100 µM (inactive); with CAKI-1 it was > 100 µM (inactive); in the assay on COLO 205, 2.99 µM (inactive); in the assay with EKVX it was > 100 µM (inactive). The GI50 in the assay with HL-60, in the assay on K562, in the assay on M14, in the assay with MDA-N, in the assay on Malme-3M and in the assay on NCI-H226 was > 100 µM (inactive) each time. For the same compound, the GI50 in the assay with OVCAR-3, with RXF 393, with SN12C and in the assay with UACC-257 was > 100 µM (inactive) in each case.
Regarding `COc1ccc(C2(c3ccc(OC)cc3)OC(=O)c3cccc4cccc2c34)cc1`, the GI50 with 786-0 is 5.41 µM (inactive); in the assay with A549 it was 8.11 µM (inactive); with ACHN it was 7.93 µM (inactive); in the assay on CAKI-1, 2.96 µM (inactive); with COLO 205, 2.81 µM (inactive); in the assay on DU-145, > 100 µM (inactive). Besides, the GI50 with EKVX is 2.76 µM (inactive); in the assay with K562 it was 3.36 µM (inactive); in the assay on M14, 3.78 µM (inactive); in the assay with MOLT-4 it was 4.58 µM (inactive); in the assay on Malme-3M it was 5.37 µM (inactive); in the assay with NCI-H226 it was 27.6 µM (inactive). Besides, the GI50 is 12.6 µM (inactive) with NCI-H23; 4.81 µM (inactive) with OVCAR-3; 15.9 µM (inactive) in the assay with RXF 393; 23.8 µM (inactive) in the assay with SN12C; 2.54 µM (inactive) in the assay with SR; > 100 µM (inactive) in the assay on UACC-257.

The record behind these values is ChEMBL document CHEMBL1201862, “PubChem BioAssay data set” (2004).
